Common to all, as to test: inhibition of tumour cell growth, NCI panel, 48 h
Assay [1] relates to IGROV1 ovarian.
Assay [2] deals with TK-10 renal.
Assay [3] relates to M14 melanoma.
In assay [4] the test system is SW-620 colon.
The subject of assay [5] is HCC-2998 colon.
In assay [6] the test system is CAKI-1 renal.
The subject of assay [7] is NCI-H522 lung.
Assay [8] concerns HT29 colon.
The subject of assay [9] is SK-OV-3 ovarian.
The subject of assay [10] is MALME-3M melanoma.

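Method: 48-hour compound exposure of cells in 96-well plates, five concentrations, linear interpolation of endpoints. Abbreviation: GI50, concentration required for 50% inhibition of growth. TGI: concentration producing complete growth inhibition.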

Turning to `COc1ccc(OC)c(-c2c(C#N)c(N)nc(N3CCOCC3)c2C#N)c1`, the GI50 in [1] was 73.9 µM; in assay [2] it was 45 µM; in assay [3] it was above 100 µM; in assay [4] it was above 100 µM; in assay [5], 72.7 µM; in assay [6], 43.4 µM. Further, the results for the GI50 in assay [7], in [8] and in [9] were 46.2 µM, above 100 µM and 11.9 µM, respectively. For the same compound, the TGI is above 100 µM in assay [1]; above 100 µM in [2]; above 100 µM in [3]; above 100 µM in assay [4]; above 100 µM in [5]; 97 µM in assay [6]. For the same compound, the TGI in assay [7], in assay [8] and in [9] was above 100 µM throughout.

Take `Nc1ncnc2c1nnn2C1CCC(CP(=O)(O)O)C1` (stereo unspecified): the TGI in assay [1], in assay [2], in assay [3], in [10], in assay [4] and in assay [5] was above 100 µM each time. Further, the TGI in assay [6], in [8] and in assay [9] was above 100 µM in each case.

As to `C=C1c2[nH]c3c([N+](=O)[O-])c(OC)ccc3c2CCN1C(C)=O`, the TGI in assay [1], in assay [2], in assay [3], in [4], in assay [5] and in [6] was above 100 µM throughout. Besides, the TGI in assay [7] and in assay [8] was above 100 µM each time.

As for `C[C@]12CCC3[C@@H](CC[C@@H]4c5nonc5CC[C@]34C)C1C/C(=N/O)C2=O` (stereo partly specified), the TGI in assay [1], in [2], in [3], in assay [10], in assay [4] and in assay [6] was above 100 µM each time. The TGI in assay [7], in assay [8] and in [9] was above 100 µM in each case.

Turning to `CN(C(=O)c1ccco1)C(=S)N1CCN(c2ccccc2)CC1`, the TGI in assay [1], in assay [2], in assay [3], in assay [10], in assay [4] and in [6] was above 100 µM throughout. Further, the TGI in assay [7], in assay [8] and in [9] was above 100 µM each time.

For `N#Cc1c(-c2ccc(Cl)cc2)c2c(n(C3OC(CO)C(O)C(O)C3O)c1=S)CCC2` (stereo unspecified), the TGI in assay [1] was above 100 µM; in assay [2] it was above 100 µM; in assay [3], 47.2 µM; in assay [10], 51.8 µM; in assay [4] it was 58.4 µM; in assay [5] it was 42.1 µM. In addition, the TGI in assay [6], in assay [8] and in assay [9] was above 100 µM in each case.

Consider `COC(=O)c1cc(Cl)ccc1NC(=O)c1ccc([N+](=O)[O-])cc1`, for which the TGI in assay [1] was 57.8 µM; in assay [2], 40.6 µM; in assay [3], 90.7 µM; in assay [10] it was 90.6 µM; in [4] it was above 100 µM; in assay [5] it was above 100 µM. In addition, the TGI in [6] was determined as 53.1 µM; in assay [8], 35.1 µM; in [9], 42.5 µM.

As to `O=C(Nc1ccc(Cl)c(Cl)c1)O/N=C\c1c(Cl)ccc([N+](=O)[O-])c1Cl`, the GI50 in [1] was 2.08 µM; in assay [3], 2.44 µM; in assay [6] it was 1.67 µM; in assay [7], 1.34 µM; in assay [8], 1.91 µM; in assay [9], 5.82 µM. Also, the TGI in assay [1] is 4.57 µM; in assay [3], 8.18 µM; in assay [6] it was 3.38 µM; in assay [7], 2.88 µM; in assay [8], 3.53 µM; in [9], 17.6 µM.

For `CC1(C)C2C=CC1(C)C1(CC2)OCCO1` (stereo unspecified), the TGI in assay [1], in assay [2], in assay [3], in assay [10], in assay [4] and in [5] was above 100 µM each time. The TGI in assay [8] and in assay [9] was above 100 µM each time.

Consider `COc1ccc(/C=N/N=C(\N)NO)c(OC)c1`, for which the TGI in assay [1] is above 100 µM; in assay [10], above 100 µM; in [4] it was above 100 µM; in [5], 43.7 µM; in assay [6], above 100 µM; in [9] it was above 100 µM.

As for `COc1ccc(/C=C2\S/C(=N/Nc3nc(-c4ccccc4)cs3)NC2=O)cc1OC`, the TGI in assay [1] was 44.2 µM; in assay [2], 59.4 µM; in assay [3], above 100 µM; in [4] it was above 100 µM; in assay [5], 64.2 µM; in assay [6], above 100 µM. For the same compound, the TGI came out at 47.4 µM in [7] and 63.7 µM in assay [9].

Turning to `COC(=O)C1=C(c2cc(OC)c(OC)c(OC)c2)OC(c2ccc(OC)c(OC)c2)C1` (stereo unspecified), the TGI in [1] was above 100 µM; in [2] it was above 100 µM; in [3], above 100 µM; in [10] it was above 100 µM; in [4] it was 87 µM; in assay [5], above 100 µM. In addition, the TGI in assay [6], in assay [8] and in [9] was above 100 µM each time.

For `COc1cc([C@H]2OC[C@H]3[C@@H]2CO[C@@H]3c2cc(OC)c3c(c2)OCO3)cc(OC)c1OC`, the TGI in [1], in assay [2], in [3], in assay [4], in [5] and in assay [6] was above 100 µM throughout. Also, the TGI in [7], in assay [8] and in assay [9] was above 100 µM in each case.

Consider `CCOC(=O)C(=Cc1cccnc1C)C(=O)OCC`, for which the TGI in assay [1] worked out at 25 µM; in assay [2], 25.5 µM; in [3], 24.2 µM; in [10], 26.8 µM; in assay [4] it was 17.5 µM; in [6] it was 18.9 µM. Moreover, the TGI was found to be 11.7 µM in [7], 18.4 µM in [8] and 25 µM in [9].

Turning to `COc1ccc(C2SC(C)C(=O)N2NC(=O)C(O)c2ccccc2)cc1OC` (stereo unspecified), the GI50 in assay [1], in assay [2], in assay [3], in [4], in [5] and in assay [6] was above 100 µM throughout. In addition, the GI50 in assay [7], in assay [8] and in assay [9] was above 100 µM in each case. In addition, the TGI in [1], in assay [2], in [3], in [4], in assay [5] and in assay [6] was above 100 µM in each case. Further, the TGI in assay [7], in [8] and in assay [9] was above 100 µM in each case.

For `Cc1ccccc1NC(=O)C(=O)CC(=O)c1c(C)n([O-])c2ccccc2[n+]1=O`, the TGI in assay [1], in assay [3], in assay [10], in [4], in assay [5] and in assay [6] was above 100 µM each time. The TGI in [8] and in assay [9] was above 100 µM throughout.

With `C[CH2][Sn]([CH2]C)([O]C(=O)C(OC(C)=O)c1ccccc1)[O]C(=O)C(OC(C)=O)c1ccccc1` (stereo unspecified), the GI50 is above 100 µM in assay [1]; 18.8 µM in assay [2]; 44.5 µM in assay [3]; 18.4 µM in assay [10]; 16.3 µM in assay [4]; 72 µM in [6]. Besides, the figures for the GI50 in assay [7], in assay [8] and in assay [9] were 1.58 µM, 46.7 µM and above 100 µM, respectively. Also, the TGI is above 100 µM in [1]; 33 µM in [2]; above 100 µM in assay [3]; 33.5 µM in [10]; 36.8 µM in assay [4]; above 100 µM in assay [6]. The TGI in assay [7] is 4.35 µM; in [8], above 100 µM; in [9] it was above 100 µM.

As to `COc1ccc(C2=NN(c3ccccc3)C[N+](c3ccc(OC)cc3)=N2)cc1`, the TGI was above 100 µM in assay [1]; above 100 µM in assay [2]; 47.1 µM in assay [10]; 61 µM in assay [4]; above 100 µM in assay [5]; 30 µM in [7]. In assay [8], this compound gave a TGI above 100 µM.

`CCCOC(=O)N1CCN(/[N+]([O-])=N/Oc2ccc([N+](=O)[O-])cc2[N+](=O)[O-])CC1`: the GI50 in assay [1] is 1.3 µM; in assay [2], 3.87 µM; in assay [6], 2.16 µM; in [7], 3.16 µM; in [8], 2.05 µM. For the same compound, the TGI in [1] was 4.05 µM; in [2], 14.9 µM; in assay [6], 5.04 µM; in assay [7], 15.7 µM; in assay [8] it was above 100 µM.

As for `COc1ccc(C(C#N)Cc2cc(OC)c(OC)c(OC)c2)cc1` (stereo unspecified), the TGI in assay [1], in assay [2], in assay [3], in [10], in [4] and in [6] was above 100 µM throughout. Moreover, the TGI was 71.9 µM in assay [7] and above 100 µM in assay [8].

These data come from PubChem BioAssay (NCI).
